Test results from patent US10857209B2, “Lysosomal acid lipase and PPAR gamma ligands as immune therapies for cancer treatment” (Indiana University Research and Technology Corporation, priority 2016, dated 2020).

T1: PPARγ (Mus musculus, UniProt P37238)
T1 construct: host or cells: lal-/- mice (lung)
T1 sequence (P37238 1-505): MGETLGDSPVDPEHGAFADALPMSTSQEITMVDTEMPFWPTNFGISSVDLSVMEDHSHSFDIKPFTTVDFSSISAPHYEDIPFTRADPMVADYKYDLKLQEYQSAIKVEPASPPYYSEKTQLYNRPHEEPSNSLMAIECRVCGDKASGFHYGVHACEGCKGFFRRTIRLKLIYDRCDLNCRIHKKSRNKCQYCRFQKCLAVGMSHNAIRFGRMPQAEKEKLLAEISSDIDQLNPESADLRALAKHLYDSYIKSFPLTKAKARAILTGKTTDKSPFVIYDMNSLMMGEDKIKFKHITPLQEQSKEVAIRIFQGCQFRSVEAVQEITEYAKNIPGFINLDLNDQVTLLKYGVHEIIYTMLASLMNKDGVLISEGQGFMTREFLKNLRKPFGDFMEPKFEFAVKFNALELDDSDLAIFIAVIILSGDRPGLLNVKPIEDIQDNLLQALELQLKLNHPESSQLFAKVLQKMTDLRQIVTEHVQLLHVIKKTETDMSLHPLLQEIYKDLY


Assays:
PPARγ = molecular target: T1, PPARγ; assay: T cell numbers in lal−/− mice (data not shown)
Ly6G+ MDSCs = assay: Transwell assay of MDSC transendothelial migration; format: cell-based, mouse; conditions: lal−/− Ly6G+ cells pre-treated 20 μmol/L 48 hours; four hours; vs ethanol
Description: Transwell assay was used to determine MDSC transendothelial migration. SVECs were added to the upper chamber of 24-well 8.0-μm-pore Transwell plates (Corning, Corning, N.Y., USA), and incubated at 37° C., 5% CO2 for 48 hours to form an EC monolayer. The supernatant was then removed, and CellTracker™ Green 5-Chloromethylfluorescein Diacetate (CMFDA) (Invitrogen, Grand Island, N.Y., USA)-labeled MDSCs (2×10^4 cells in 200 μL media) were added to the upper well. After 4 hours, transendothelial migration of MDSCs was determined by counting their numbers in the lower chamber under 5 random microscopic fields.

B16 melanoma cells [1] = assay: Transwell assay, effect of MDSC-secreted cytokines on melanoma cell proliferation; format: cell-based, mouse; conditions: pre-treated lal−/− Ly6G+ cells in upper chamber; 72 hours
Description: To observe the effect of MDSCs-secreted cytokines on melanoma cell proliferation, transwell assay was performed with 0.4-μm-pore 6.5-mm diameter Transwell plates (Corning) to separate MDSCs and B16 melanoma cells. One million pre-treated MDSCs in 200 μL media were seeded into the upper chamber of the plates, while 2×10^4 melanoma cells in 500 μL media were placed in the lower chamber. After 72 hours' culture, the transwells were removed, and the number of B16 melanoma cells in the lower chamber was counted.

B16 melanoma cells [2] = assay: In vitro co-culture of pre-treated MDSCs and B16 melanoma cells; format: cell-based, mouse; conditions: lal−/− Ly6G+ cells pre-treated 20 μmol/L 24 hours; 72 hours co-culture; vs ethanol
Description: Ethanol or 20 μmol/L 9-HODE pre-treated (for 24 hours) MDSCs (5×10^5) and B16 melanoma cells (5×10^3) were mixed, and seeded into a well of 96-well plates in DMEM supplemented with 10% FBS. Seventy-two hours later, unattached MDSCs were removed by washing with PBS, and the number of attached B16 melanoma cells was counted. Morphologically, MDSCs are much smaller than B16 melanoma cells for exclusion.

B16 melanoma cells [3] = assay: B16 melanoma growth and metastasis in myeloid-specific hLAL Tg/KO triple mice; format: in vivo, mouse; conditions: myeloid-specific expression
Excerpt: lal^+/+ and lal^−/− mice of the FVBN background were bred in house. c-fms-rtTA/(TetO)7-CMV-hLAL; lal^−/− (Tg/KO) triple mice of the FVBN background is a previously generated triple transgenic mouse model with myeloid-specific doxycycline-inducible expression of wild-type human LAL (hLAL) in lal^−/− mice under the control of the c-fms promoter. All scientific protocols involving the use of animals have been approved by the Institutional Animal Care and Use Committee of Indiana University School of Medicine and followed guidelines established by the Panel on Euthanasia of the American Veterinary Medical Association. Animals were housed under Institutional Animal Care and Use Committee-approved conditions in a secured animal facility at the Indiana University School of Medicine.
Four-month-old lal^+/+ or lal^−/− mice were inoculated with 1×10^5 B16 melanoma cells subcutaneously into the flank region, and tumor size (length×width^2×π/6) was monitored every week for 3 weeks. For intravenous injection of B16 melanoma cells, 5×10^5 B16 melanoma cells in 200 μl PBS were injected into 4-month-old lal^+/+ or lal^−/− mice via tail vein. A pilot study was performed to determine the best ratio between MDSCs and B16 melanoma cells. For co-injection of MDSCs and B16 melanoma cells via tail vein, 2×10^6 MDSCs and 5×10^5 B16 melanoma cells were mixed and incubated at 37° C. and 5% CO2 for 30 minutes. […]

[4] = system: LLC or B16 melanoma cells; assay: In vitro BALF treatment of tumor cells (proliferation, wound healing); format: cell-based, mouse
Description: BALF was harvested by 1 mL PBS, and cells were removed by centrifugation. To determine the effect of BALF on tumor cell proliferation, B16 melanoma or LLC cells (5×10^3) were seeded into a well of 96-well plates in 100 μL DMEM supplemented with 10% FBS, and then treated with 100 μL BALF harvested from lal^+/+, lal^−/− or CCSP-Tg/KO triple mice. Seventy-two hours later, the number of B16 melanoma or LLC cells was counted.
To analyze the effects of BALF on tumor cell or EC migration, in vitro wound healing assays were performed. Briefly, tumor cells or ECs were seeded at a density of 1.5×10^5 cells/well into a 24-well plate and incubated overnight to form a confluent monolayer. Scratch was created by scraping the cell monolayer in a straight line with a p200 pipet tip. After washing 3 times with PBS, the medium was changed with 250 μL DMEM containing 10% FBS and 5 μg/mL mitomycin C (Sigma-Aldrich). Then 250 μL BALF from lal^+/+, lal^−/− or CCSP-Tg/KO triple mice were added to the well. Cells were kept on culture at 37° C., 5% CO2. Images were taken at 0 and 15 hours after creating the scratch. Migration was estimated by measuring the distances from one side of the scratch to the other side using Image Pro-Plus software (Media Cybernetics, Rockville, Md., USA).

decreased T cell numbers in lal−/− mice (PPARγ) | Molecule | Ly6G+ cells migrated across endothelial monolayer (Ly6G+ MDSCs) | number of B16 melanoma cells in lower chamber (B16 melanoma cells [1]) | proliferation of B16 melanoma cells upon co-culture (B16 melanoma cells [2]) | decrease of tumor volume vs untreated mice (B16 melanoma cells [3]; doxycycline-treated Tg/KO triple mice, B16 s.c., 2 weeks post-injection) | melanoma colonies in the lungs (B16 melanoma cells [3]; doxycycline-treated vs untreated Tg/KO triple mice, B16 i.v., 2 weeks) | tumor cell proliferation in vitro ([4]; LLC or B16 cells cultured 72 hours with BALF from doxycycline-treated CCSP-Tg/KO mice) | tumor cell migration in vitro ([4]; LLC or B16 cells, wound healing 15 hours, BALF from doxycycline-treated CCSP-Tg/KO mice, mitomycin C)
reversed | 9-hydroxyoctadecadienoic acid [9-HODE] | less Ly6G^+ cells in the lower chamber | significantly less | significantly decreased proliferation of B16 melanoma cells |  |  |  | 
 | hLAL: human lysosomal acid lipase expressed from a doxycycline-controlled tissue-specific transgene in lal−/− mice; never administered as a protein (protein, left off: small tags and cut ends, human lysosomal acid lipase expressed from a doxycycline-controlled tissue-specific transgene in lal−/− mice; never administered as a protein) GPKPVVFLQHGLLADSSNWVTNLANSSLGFILADAGFDVWMGNSRGNTWSRKHKTLSVSQDEFWAFSYDEMAKYDLPASINFILNKTGQEQVYYVGHSQGTTIGFIAFSQIPELAKRIKMFFALGPVASVAFCTSPMAKLGRLPDHLIKDLFGDKEFLPQSAFLKWLGTHVCTHVILKELCGNLCFLLCGFNERNLNMSRVDVYTTHSPAGTSVQNMLHWSQAVKFQKFQAFDWGSSAKNYFHYNQSYPPTYNVKDMLVPTAVWSGGHDWLADVYDVNILLTQITNLVFHESIPEWEHLDFIWGLDAPWRLYNKIINLMRKYQ |  |  |  | 50% | reduced number of melanoma colonies in the lungs | reduced | reduced
